Tests used:
Conditions in all cases: Compound concentration 1000.0 nM
[1] = system: Mast/stem cell growth factor receptor Kit (Homo sapiens), P10721 [D816V]
[2] = molecular target: T1, Tyrosine-protein kinase Tec (Homo sapiens) (UniProt P42680)
T1 sequence (whole entry): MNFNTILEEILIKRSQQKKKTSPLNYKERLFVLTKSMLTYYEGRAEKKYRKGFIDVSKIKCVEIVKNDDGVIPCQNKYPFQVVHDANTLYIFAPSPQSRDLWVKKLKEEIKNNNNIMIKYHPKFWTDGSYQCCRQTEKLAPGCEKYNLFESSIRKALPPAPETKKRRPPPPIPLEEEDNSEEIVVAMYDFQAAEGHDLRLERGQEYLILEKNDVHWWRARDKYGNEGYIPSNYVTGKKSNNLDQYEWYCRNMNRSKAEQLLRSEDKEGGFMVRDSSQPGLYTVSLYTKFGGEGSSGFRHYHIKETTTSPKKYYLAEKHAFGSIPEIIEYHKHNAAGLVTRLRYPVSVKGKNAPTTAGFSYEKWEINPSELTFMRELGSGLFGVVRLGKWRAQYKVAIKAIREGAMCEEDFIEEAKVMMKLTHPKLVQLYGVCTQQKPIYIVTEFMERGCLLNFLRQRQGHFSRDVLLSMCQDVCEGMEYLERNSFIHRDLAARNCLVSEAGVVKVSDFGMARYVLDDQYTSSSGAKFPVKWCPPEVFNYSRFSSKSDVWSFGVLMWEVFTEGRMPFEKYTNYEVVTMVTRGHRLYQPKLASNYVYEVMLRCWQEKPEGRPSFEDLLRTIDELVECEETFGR

[3] = molecular target: Receptor-interacting serine/threonine-protein kinase 4 (Homo sapiens) (UniProt P57078)
Chain of Receptor-interacting serine/threonine-protein kinase 4 (Homo sapiens) (P57078 whole entry): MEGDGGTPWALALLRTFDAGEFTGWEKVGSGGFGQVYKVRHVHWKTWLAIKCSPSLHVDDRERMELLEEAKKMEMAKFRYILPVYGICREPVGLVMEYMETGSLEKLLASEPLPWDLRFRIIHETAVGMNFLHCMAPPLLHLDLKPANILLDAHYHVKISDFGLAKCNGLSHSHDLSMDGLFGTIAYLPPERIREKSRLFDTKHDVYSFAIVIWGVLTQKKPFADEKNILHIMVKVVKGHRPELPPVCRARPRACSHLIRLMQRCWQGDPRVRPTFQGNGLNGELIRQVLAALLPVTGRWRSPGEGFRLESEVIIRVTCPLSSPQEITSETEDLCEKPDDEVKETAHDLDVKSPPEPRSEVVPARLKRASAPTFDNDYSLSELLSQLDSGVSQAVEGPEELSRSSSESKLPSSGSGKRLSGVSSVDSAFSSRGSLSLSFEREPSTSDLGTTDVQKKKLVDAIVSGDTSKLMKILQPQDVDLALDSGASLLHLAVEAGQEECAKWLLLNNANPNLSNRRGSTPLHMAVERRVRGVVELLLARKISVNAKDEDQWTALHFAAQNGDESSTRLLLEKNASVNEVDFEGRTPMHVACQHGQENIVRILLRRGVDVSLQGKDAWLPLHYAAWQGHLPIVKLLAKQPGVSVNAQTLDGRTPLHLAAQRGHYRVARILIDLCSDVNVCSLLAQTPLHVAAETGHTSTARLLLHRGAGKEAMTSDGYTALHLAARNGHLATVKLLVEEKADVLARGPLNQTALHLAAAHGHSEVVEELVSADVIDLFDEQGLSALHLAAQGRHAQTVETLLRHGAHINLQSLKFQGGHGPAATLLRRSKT

[4] = system: Mast/stem cell growth factor receptor Kit (Homo sapiens), P10721 [A829P]
Chain of Mast/stem cell growth factor receptor Kit (Homo sapiens), P10721 [A829P] (P10721 whole entry A829P): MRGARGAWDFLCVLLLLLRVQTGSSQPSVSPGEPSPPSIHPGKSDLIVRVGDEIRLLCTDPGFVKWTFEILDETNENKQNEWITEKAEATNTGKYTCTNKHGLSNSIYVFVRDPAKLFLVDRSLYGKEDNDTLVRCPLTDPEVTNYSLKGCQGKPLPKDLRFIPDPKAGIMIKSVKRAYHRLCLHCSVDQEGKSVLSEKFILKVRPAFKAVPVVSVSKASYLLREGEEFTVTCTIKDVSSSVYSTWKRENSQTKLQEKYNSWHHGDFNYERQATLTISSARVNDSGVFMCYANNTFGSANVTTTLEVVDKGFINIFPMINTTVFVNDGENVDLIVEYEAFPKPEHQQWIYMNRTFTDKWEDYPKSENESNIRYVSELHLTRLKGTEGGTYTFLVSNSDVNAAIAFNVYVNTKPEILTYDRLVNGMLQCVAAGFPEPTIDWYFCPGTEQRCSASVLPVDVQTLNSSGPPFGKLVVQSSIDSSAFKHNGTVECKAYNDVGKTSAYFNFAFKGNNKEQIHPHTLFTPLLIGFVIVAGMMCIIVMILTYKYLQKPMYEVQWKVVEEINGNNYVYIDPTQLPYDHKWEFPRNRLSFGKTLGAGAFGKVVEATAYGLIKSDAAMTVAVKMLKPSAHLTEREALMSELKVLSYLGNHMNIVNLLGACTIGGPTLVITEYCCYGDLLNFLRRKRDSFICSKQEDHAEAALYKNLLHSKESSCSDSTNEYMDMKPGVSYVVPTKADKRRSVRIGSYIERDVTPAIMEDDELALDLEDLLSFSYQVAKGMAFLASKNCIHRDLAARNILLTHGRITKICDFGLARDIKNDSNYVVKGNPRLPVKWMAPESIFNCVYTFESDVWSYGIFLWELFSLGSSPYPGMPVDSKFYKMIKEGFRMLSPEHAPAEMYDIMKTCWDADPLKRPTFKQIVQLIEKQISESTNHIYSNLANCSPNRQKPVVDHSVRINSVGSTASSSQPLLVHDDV

[5] = system: Tyrosine-protein kinase ABL1 (Homo sapiens), P00519 [F317L]
Chain of Tyrosine-protein kinase ABL1 (Homo sapiens), P00519 [F317L] (P00519 whole entry F317L): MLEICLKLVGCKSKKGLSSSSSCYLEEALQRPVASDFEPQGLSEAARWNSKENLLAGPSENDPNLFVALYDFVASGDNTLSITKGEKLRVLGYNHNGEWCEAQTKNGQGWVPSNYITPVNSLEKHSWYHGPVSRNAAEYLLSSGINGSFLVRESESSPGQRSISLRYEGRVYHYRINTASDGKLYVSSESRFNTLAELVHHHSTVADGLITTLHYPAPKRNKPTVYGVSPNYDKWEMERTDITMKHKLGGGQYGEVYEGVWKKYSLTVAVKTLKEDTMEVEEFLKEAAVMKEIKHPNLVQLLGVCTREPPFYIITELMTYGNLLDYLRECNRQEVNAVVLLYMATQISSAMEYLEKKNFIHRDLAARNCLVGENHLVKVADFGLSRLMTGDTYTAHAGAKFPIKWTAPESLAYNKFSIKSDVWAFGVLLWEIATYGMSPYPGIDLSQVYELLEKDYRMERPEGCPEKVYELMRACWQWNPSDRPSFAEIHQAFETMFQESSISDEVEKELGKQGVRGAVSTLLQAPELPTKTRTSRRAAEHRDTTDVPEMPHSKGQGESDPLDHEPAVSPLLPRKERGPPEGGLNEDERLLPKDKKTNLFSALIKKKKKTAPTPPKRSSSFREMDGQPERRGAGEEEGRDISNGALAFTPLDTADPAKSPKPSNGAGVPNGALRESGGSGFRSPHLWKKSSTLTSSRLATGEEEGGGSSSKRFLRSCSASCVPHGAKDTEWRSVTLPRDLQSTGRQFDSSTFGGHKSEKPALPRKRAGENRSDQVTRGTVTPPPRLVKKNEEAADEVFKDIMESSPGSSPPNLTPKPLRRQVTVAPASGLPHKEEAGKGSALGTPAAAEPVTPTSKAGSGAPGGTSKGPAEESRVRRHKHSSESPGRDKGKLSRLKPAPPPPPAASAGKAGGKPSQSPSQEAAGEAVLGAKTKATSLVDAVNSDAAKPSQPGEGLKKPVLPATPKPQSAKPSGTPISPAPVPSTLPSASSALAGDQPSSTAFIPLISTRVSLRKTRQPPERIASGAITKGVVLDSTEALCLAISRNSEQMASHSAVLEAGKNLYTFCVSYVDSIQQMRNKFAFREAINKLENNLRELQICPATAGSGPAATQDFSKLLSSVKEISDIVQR

[6] = molecular target: Mitogen-activated protein kinase kinase kinase 15 (Homo sapiens) (UniProt Q6ZN16)
[7] = molecular target: Serine/threonine-protein kinase LATS1 (Homo sapiens) (UniProt O95835)
[8] = molecular target: T2, Cytoplasmic tyrosine-protein kinase BMX (Homo sapiens) (UniProt P51813)
T2 sequence (whole entry): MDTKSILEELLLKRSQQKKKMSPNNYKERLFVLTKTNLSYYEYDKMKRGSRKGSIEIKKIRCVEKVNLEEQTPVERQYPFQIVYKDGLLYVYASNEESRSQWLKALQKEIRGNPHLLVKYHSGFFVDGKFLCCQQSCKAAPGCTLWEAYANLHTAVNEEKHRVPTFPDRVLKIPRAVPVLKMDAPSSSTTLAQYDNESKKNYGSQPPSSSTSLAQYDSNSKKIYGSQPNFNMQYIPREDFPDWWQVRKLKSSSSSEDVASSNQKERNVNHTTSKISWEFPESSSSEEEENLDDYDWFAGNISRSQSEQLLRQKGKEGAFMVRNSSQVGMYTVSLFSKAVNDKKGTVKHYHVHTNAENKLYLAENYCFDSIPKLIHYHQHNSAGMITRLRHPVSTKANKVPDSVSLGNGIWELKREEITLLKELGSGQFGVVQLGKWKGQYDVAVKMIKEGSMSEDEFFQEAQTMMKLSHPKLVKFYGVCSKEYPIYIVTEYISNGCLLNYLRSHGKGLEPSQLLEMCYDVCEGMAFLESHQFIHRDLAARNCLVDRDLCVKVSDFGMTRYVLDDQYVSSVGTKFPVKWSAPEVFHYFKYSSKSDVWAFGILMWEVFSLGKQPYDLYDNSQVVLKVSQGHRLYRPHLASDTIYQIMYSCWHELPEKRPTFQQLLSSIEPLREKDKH

[9] = molecular target: Ankyrin repeat and protein kinase domain-containing protein 1 (Homo sapiens) (UniProt Q8NFD2)
[10] = molecular target: 1-phosphatidylinositol 3-phosphate 5-kinase (Homo sapiens) (UniProt Q9Y2I7)
Chain of 1-phosphatidylinositol 3-phosphate 5-kinase (Homo sapiens) (Q9Y2I7 whole entry): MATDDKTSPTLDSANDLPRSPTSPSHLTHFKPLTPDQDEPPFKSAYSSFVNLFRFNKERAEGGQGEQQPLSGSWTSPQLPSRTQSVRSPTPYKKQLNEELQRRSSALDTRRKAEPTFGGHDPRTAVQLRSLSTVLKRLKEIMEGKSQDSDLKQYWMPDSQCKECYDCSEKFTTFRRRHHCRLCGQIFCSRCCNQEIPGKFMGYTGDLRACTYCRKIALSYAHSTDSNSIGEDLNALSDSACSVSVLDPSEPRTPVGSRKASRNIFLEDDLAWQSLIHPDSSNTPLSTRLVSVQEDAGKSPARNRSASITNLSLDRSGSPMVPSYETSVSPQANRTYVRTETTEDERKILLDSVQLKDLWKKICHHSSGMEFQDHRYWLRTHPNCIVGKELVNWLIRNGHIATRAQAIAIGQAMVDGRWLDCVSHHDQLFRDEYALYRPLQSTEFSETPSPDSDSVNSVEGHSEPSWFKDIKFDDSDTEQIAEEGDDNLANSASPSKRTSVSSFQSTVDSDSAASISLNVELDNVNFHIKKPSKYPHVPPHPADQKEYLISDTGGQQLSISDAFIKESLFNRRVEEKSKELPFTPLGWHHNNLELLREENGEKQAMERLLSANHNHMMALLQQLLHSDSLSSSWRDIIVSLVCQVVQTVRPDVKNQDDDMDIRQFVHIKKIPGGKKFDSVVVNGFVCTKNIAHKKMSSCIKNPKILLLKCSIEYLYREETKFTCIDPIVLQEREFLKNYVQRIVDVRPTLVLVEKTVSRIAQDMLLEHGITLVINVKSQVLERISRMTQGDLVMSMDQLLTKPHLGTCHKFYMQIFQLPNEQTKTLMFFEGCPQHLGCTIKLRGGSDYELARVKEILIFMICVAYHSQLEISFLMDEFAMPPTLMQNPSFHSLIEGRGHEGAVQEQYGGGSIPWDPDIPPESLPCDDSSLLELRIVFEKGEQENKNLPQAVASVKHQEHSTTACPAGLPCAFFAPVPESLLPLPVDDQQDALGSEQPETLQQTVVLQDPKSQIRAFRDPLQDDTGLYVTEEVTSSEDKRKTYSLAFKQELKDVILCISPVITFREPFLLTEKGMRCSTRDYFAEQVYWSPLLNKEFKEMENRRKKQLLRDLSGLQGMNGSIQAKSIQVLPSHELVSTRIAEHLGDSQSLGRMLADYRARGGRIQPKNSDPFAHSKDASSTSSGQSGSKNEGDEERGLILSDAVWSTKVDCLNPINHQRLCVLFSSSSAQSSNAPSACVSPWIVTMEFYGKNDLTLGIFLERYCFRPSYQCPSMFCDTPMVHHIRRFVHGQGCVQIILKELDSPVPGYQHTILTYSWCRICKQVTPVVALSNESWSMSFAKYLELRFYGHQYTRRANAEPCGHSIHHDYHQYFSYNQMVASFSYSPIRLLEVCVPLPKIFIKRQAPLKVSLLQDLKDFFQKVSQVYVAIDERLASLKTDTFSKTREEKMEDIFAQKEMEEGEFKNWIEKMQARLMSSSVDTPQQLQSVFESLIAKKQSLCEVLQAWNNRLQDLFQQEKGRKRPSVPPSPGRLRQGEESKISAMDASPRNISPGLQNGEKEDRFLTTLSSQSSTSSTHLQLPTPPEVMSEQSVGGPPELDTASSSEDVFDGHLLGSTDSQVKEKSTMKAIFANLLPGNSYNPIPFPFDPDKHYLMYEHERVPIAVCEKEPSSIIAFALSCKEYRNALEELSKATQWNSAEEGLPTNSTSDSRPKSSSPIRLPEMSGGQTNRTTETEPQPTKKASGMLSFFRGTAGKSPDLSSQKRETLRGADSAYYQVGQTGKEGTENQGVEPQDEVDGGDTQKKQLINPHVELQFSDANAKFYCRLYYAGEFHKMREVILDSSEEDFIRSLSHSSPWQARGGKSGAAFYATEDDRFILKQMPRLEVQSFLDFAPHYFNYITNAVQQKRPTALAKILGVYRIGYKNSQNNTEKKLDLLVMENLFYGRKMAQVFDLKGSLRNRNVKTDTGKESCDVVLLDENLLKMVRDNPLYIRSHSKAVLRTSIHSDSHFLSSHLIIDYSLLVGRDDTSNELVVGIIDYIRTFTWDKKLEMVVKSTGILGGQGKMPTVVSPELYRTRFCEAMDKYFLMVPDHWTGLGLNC

[11] = molecular target: Serine/threonine-protein kinase WNK2 (Homo sapiens) (UniProt Q9Y3S1)
[12] = molecular target: T3, Calcium/calmodulin-dependent protein kinase type IV (Homo sapiens) (UniProt Q16566)
T3 sequence (whole entry): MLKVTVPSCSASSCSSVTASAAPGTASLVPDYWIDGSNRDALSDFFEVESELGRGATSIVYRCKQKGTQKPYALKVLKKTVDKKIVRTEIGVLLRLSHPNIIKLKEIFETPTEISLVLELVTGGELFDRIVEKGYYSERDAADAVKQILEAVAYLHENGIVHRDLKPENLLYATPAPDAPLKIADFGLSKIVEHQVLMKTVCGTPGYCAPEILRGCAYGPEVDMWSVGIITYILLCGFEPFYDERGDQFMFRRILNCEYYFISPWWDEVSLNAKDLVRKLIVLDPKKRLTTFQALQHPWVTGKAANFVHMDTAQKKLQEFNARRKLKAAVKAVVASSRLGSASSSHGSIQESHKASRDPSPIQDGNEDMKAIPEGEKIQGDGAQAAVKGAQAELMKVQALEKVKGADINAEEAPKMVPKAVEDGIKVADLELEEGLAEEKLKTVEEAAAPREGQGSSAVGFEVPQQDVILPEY

Measured: residual activity

Chain of Mast/stem cell growth factor receptor Kit (Homo sapiens), P10721 [D816V] (P10721 whole entry D816V): as the sequence (P10721 whole entry A829P) above, with D816V, P829A counted along it

CN(C)C(=O)Cn1cc(-c2nc(C3(c4ccc(-c5cnc(N)nc5)cc4)CC3)no2)cn1 [BI 0153]
inactive: [1] 92% | [2] 93% | [3] 70% | [4] 93% | [5] 55% | [6] 100% | [7] 100% | [8] 88% | [9] 81% | [10] 98% | [11] 67% | [12] 100%

CN(C)C(=O)Cn1cc(-c2nc([C@@](C)(c3ccc(-c4cnc(N)nc4)cc3)C3CC3)no2)cn1 [BI 665915]
inactive: [1] 94% | [2] 93% | [3] 93% | [4] 80% | [5] 66% | [6] 99% | [7] 93% | [8] 93% | [9] 81% | [10] 68% | [11] 100% | [12] 83%
